From PubChem BioAssay (NCI)
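48-hour exposure; five concentrations; linearly interpolated endpoints. TGI denotes the concentration required for complete inhibition of growth.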

Legend:
Test in all cases: NCI tumour cell line growth inhibition, 48 h
[1] = tested on: UO-31 renal
[2] = tested on: MOLT-4 leukemia
[3] = tested on: A549 NSCLC
[4] = tested on: OVCAR-8 ovarian
[5] = tested on: SF-268 CNS
[6] = tested on: SF-295 CNS
[7] = tested on: SK-MEL-5 melanoma
[8] = tested on: SK-MEL-2 melanoma
[9] = tested on: UACC-62 melanoma
[10] = tested on: SN12K1 renal
[11] = tested on: SF-539 CNS
[12] = tested on: P388/ADR leukemia
[13] = tested on: NCI-H522 lung
[14] = tested on: UACC-257 melanoma
[15] = tested on: KM12 colon
[16] = tested on: HCT-116 colon
[17] = tested on: HOP-92 NSCLC
[18] = tested on: IGROV1 ovarian
[19] = tested on: SNB-19 CNS
[20] = tested on: HCT-15 colon
[21] = tested on: P388 leukemia
[22] = tested on: SW-620 colon
[23] = tested on: DMS 273 small cell lung
[24] = tested on: K-562 leukemia
[25] = tested on: MCF7 breast
[26] = tested on: RPMI-8226 leukemia
[27] = tested on: OVCAR-5 ovarian
[28] = tested on: SNB-78 CNS
[29] = tested on: HL-60(TB) leukemia
[30] = tested on: SNB-75 CNS
[31] = tested on: CCRF-CEM leukemia
[32] = tested on: DLD-1 colon
[33] = tested on: NCI-H23 lung
[34] = tested on: RXF 393 renal
[35] = tested on: HOP-62 NSCLC
[36] = tested on: M19-MEL melanoma
[37] = tested on: COLO 205 colon
[38] = tested on: MALME-3M melanoma
[39] = tested on: SN12C renal
[40] = tested on: NCI-H226 lung
[41] = tested on: SK-OV-3 ovarian
[42] = tested on: HOP-18 NSCLC
[43] = tested on: DMS 114 small cell lung
[44] = tested on: EKVX NSCLC
[45] = tested on: CAKI-1 renal
[46] = tested on: LOX IMVI melanoma
[47] = tested on: HCC-2998 colon
[48] = tested on: U251 CNS
[49] = tested on: NCI/ADR-RES ovarian
[50] = tested on: OVCAR-3 ovarian
[51] = tested on: SK-MEL-28 melanoma
[52] = tested on: KM20L2 colon
[53] = tested on: NCI-H460 lung
[54] = tested on: OVCAR-4 ovarian
[55] = tested on: HT29 colon
[56] = tested on: MDA-N
[57] = tested on: SR leukemia
[58] = tested on: TK-10 renal
[59] = tested on: HS 578T breast
[60] = tested on: 786-0 renal
[61] = tested on: MDA-MB-231 breast
[62] = tested on: BT-549 breast
[63] = tested on: ACHN renal
[64] = tested on: XF 498 CNS
[65] = tested on: DU-145 prostate
[66] = tested on: MDA-MB-435
[67] = tested on: RXF-631 renal
[68] = tested on: PC-3 prostate
[69] = tested on: M14 melanoma
[70] = tested on: LXFL 529 NSCLC
[71] = tested on: A498 renal

Measured: TGI

Nc1nc2c(c(=O)[nH]1)N(C=O)C(CNc1ccc(C(=O)N[C@@H](CCC(=O)O)C(=O)O)cc1)CN2 (stereo partly drawn)
49.1 µM: [8]
> 31.4 µM: [24] | [29] | [31]
not listed: [56] | [57] | [58] | [59] | [60] | [61] | [62] | [63] | [64] | [65] | [66] | [67] | [68] | [69] | [70] | [71]
> 125 µM: all other assays above

COC(=O)c1sc(C(=O)OC)c2c1CSC2
> 85.8 µM: [19]
> 97.1 µM: [34]
81.6 µM: [64]
> 81 µM: [48]
57.7 µM: [30]
> 93.6 µM: [17]
not listed: [10] | [12] | [21]
> 100 µM: all other assays above
